From patent US10041105B2, “Methods and devices for detection of resistance to an enzyme inhibitor” (priority 2014, dated 2018)

What was measured:
[1] = tested on: beta lactamase of patient isolate colony; test: Clavulanate resistance using a single bacterial colony
Description: (§6) As described in EXAMPLE 7, the assay consisted of two reagents, Reagent Mix I and Reagent Mix II, where Reagent Mix I contained one master mix without clavulanate while Reagent Mix II contained a master mix with clavulanate. In this example, reagent mixes equivalent to 0.25 mL of the master mixes were lyophilized in test tubes.
(§7) Patient samples were cultured overnight on an agar plate. A single colony was suspended in 2.5 mL sample buffer as described in EXAMPLE 7, of which 0.25 mL was added to Reagent Mixes I and II vials. After incubation at room temperature for 15 min, the reagent vials were inserted into a luminometer for signal measurement.

[2] = tested on: SHV-2 beta lactamase (Escherichia coli); type: biochemical
Description: (§1) The reagent mix was prepared as a 2× concentrated solution. The 2× concentrated reagent mix contained 50 mM HEPES (pH 7.0 to 7.2), 0.2 mM ZnCl2, 8 mM ATP, 10 mM DTT, 0.1 mM Coenzyme A, 5 micrograms/mL luciferase, 0.01 mM Cephalosporin-O-Luciferin, 0.1 mg/mL BSA, 8 mM CaCl2, 30 mM MgCl2, and 1% Triton X-100. Cephalosporin-O-Luciferin was used as a beta lactamase substrate. This substrate was synthesized and purified according to a procedure published in a scientific article (Angew. Chem. Int. Ed. 2007 Vol. 46, pp. 7031-7034), which is cited here solely as a reference.
(§2) Genes encoding five species of beta lactamase were synthesized and cloned into an E. coli expression vector. The E. coli cells transformed with the expression vector containing the gene encoding a beta lactamase was induced to express the enzyme. The cells were then pelleted, suspended in a sample buffer (Fisher Scientific Cat. No. 90084) and sonicated to lyse the cells.
(§3) 2× concentrated reagent mixes were prepared. The 2× reagent mix without a beta lactamase inhibitor or antibiotic (Reagent Mix I) was prepared according to the composition provided in Example 6. The 2× concentrated reagent mix containing a beta lactamase inhibitor or imipenem (Reagent Mix IIb) was prepared by supplementing the Reagent Mix I with 64 micrograms/mL of clavulanate (Reagent Mix IIa) or 64 micrograms/mL of imipenem (Reagent Mix IIb).
(§4) Reactions were carried out by diluting 50 microliters of 2× reagent mixes into 45 microliters of deionized water, followed by addition of 5 microliters of cell lysate. […] Light signal was measured using a luminometer after 15 min incubation at room temperature. The signal in Reagent Mix I was used to detect the presence of beta lactamase in the sample by comparing the signal in the reaction to that of negative controls while the signal ratio was used to determine the resistance of the beta lactamase to clavulanate or imipenem.
(§5) In this example, the signal ratios were expressed as R-Factor values, which were calculated as follows: R-Factor=10×(Reagent Mix II Signal÷Reagent Mix I Signal)

p99 beta lactamase = p99 beta lactamase (Enterobacter cloacae, UniProt P05364); type: biochemical
Sequence of p99 beta lactamase (P05364 21-381): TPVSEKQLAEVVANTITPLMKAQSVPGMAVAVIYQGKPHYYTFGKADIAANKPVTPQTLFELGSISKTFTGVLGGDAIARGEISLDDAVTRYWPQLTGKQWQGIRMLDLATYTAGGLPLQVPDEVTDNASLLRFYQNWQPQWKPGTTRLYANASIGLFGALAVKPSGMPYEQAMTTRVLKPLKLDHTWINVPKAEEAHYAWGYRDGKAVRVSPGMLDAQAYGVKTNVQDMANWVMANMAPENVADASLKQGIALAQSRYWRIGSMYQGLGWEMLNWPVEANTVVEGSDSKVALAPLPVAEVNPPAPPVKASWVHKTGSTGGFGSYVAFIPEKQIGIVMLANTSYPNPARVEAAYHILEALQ
Description: as §1, §2, §3, §4, §5

SHV-2 beta lactamase = SHV-2 beta lactamase (Escherichia coli, UniProt P0A9Z7); type: biochemical
Sequence of SHV-2 beta lactamase (P0A9Z7 22-286): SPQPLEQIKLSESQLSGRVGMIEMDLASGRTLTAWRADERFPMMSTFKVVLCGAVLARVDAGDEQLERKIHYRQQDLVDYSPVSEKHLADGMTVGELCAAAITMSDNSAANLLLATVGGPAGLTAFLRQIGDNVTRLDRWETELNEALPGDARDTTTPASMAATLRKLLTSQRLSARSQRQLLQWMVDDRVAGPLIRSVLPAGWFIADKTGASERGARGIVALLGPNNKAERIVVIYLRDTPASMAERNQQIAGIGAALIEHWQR
Description: as §1, §2, §3, §4, §5

[3] = tested on: beta lactamase of patient isolate colony; test: Clavulanate resistance using a single bacterial colony; remark: listed apart in the source
Description: as §6, §7

[4] = tested on: beta lactamase of patient isolate colony; test: as above; remark: listed apart in the source
Description: as §6, §7

[5] = molecular target: New Deli Metallo-beta lactamase (NDM-2) (Klebsiella pneumoniae, UniProt C7C422, P28A); test: Beta lactamase luminescent assay with inhibitor reagent mixes; type: biochemical; conditions: 64 micrograms/mL in 2× mix, lysate dilution 1:2
Sequence of New Deli Metallo-beta lactamase (NDM-2) (C7C422 29-270 P28A (numbered from the first residue shown)): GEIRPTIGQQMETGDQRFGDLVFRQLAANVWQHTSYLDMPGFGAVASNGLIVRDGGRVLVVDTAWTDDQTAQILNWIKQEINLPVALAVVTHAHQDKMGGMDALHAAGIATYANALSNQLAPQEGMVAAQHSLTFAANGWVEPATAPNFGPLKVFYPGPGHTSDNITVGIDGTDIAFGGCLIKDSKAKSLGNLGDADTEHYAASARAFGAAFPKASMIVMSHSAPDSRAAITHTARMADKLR
Description: as §1, §2, §3, §4, §5

TEM-2 beta lactamase = TEM-2 beta lactamase (Escherichia coli, UniProt P62593, Q37K); test: as above; type: biochemical
Description: as §1, §2, §3, §4, §5

KPC-2 beta lactamase = KPC-2 beta lactamase (Klebsiella pneumoniae, UniProt Q9F663); test: as above; type: biochemical; conditions: 64 micrograms/mL in 2× mix, lysate dilution 1:10
Sequence of KPC-2 beta lactamase (Q9F663 25-293 limits assumed): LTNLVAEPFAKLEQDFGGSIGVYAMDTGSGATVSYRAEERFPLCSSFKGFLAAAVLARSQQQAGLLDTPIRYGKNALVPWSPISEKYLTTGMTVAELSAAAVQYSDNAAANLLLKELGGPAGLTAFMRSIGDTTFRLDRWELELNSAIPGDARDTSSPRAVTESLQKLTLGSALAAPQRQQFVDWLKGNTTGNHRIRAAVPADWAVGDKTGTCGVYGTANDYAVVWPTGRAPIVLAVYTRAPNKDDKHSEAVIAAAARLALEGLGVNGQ
Description: as §1, §2, §3, §4, §5

[6] = tested on: beta lactamase of patient isolate colony; test: Clavulanate resistance using a single bacterial colony; remark: listed apart in the source
Description: as §6, §7

Sequence of SHV-2 beta lactamase (Escherichia coli) (P0A9Z7 22-286): as the sequence (P0A9Z7 22-286) above

Compound: O=C(O)[C@H]1/C(=C/CO)O[C@@H]2CC(=O)N21 [Clavulanate, clavulanate]
- Interpretation ([1]; No. 1, Sample ID 1845): susceptible to CA (CA (clavulanate) resistance cutoff R-Factor value: 2.50)
- R-Factor ([1]; No. 1, Sample ID 1845): 0.07
- Interpretation ([1]; No. 2, Sample ID 1847): susceptible to CA (CA (clavulanate) resistance cutoff R-Factor value: 2.50)
- R-Factor ([1]; No. 2, Sample ID 1847): 0.15
- Interpretation ([1]; No. 20, Sample ID B650): susceptible to CA (CA (clavulanate) resistance cutoff R-Factor value: 2.50)
- R-Factor ([1]; No. 20, Sample ID B650): 0.11
- Interpretation ([1]; No. 21, Sample ID B671): resistant to CA (CA (clavulanate) resistance cutoff R-Factor value: 2.50)
- R-Factor ([1]; No. 21, Sample ID B671): 4.12
- R-Factor [2]: 0.23
- S/N (Signal to Noise Ratio) in inhibitor-containing reagent mix (p99 beta lactamase): 48.00
- S/N (Signal to Noise Ratio) in inhibitor-containing reagent mix (SHV-2 beta lactamase): 1.00
- resistance of the beta lactamase to the substance (SHV-2 beta lactamase): susceptible
- Interpretation ([3]; No. 3, Sample ID 1820): resistant to CA (CA (clavulanate) resistance cutoff R-Factor value: 2.50)
- R-Factor ([3]; No. 3, Sample ID 1820): 3.67
- Interpretation ([3]; No. 7, Sample ID 1789): susceptible to CA (CA (clavulanate) resistance cutoff R-Factor value: 2.50)
- R-Factor ([3]; No. 7, Sample ID 1789): 1.14
- Interpretation ([3]; No. 8, Sample ID 1800): resistant to CA (CA (clavulanate) resistance cutoff R-Factor value: 2.50)
- R-Factor ([3]; No. 8, Sample ID 1800): 11.13
- Interpretation ([3]; No. 13, Sample ID 1962-2): resistant to CA (CA (clavulanate) resistance cutoff R-Factor value: 2.50)
- R-Factor ([3]; No. 13, Sample ID 1962-2): 15.47
- Interpretation ([3]; No. 14, Sample ID 1963): resistant to CA (CA (clavulanate) resistance cutoff R-Factor value: 2.50)
- R-Factor ([3]; No. 14, Sample ID 1963): 19.95
- Interpretation ([4]; No. 17, Sample ID 2015): susceptible to CA (CA (clavulanate) resistance cutoff R-Factor value: 2.50)
- R-Factor ([4]; No. 17, Sample ID 2015): 1.74
- Interpretation ([4]; No. 18, Sample ID 2022-1): susceptible to CA (CA (clavulanate) resistance cutoff R-Factor value: 2.50)
- R-Factor ([4]; No. 18, Sample ID 2022-1): 1.31
- R-Factor [5]: 6.02
- S/N (Signal to Noise Ratio) in inhibitor-containing reagent mix ([5]; 15 min): 13.00
- R-Factor ([5]; listed as clavulanate): high
- R-Factor (TEM-2 beta lactamase; 64 micrograms/mL in 2× mix, lysate undiluted): 1.18
- S/N (Signal to Noise Ratio) in inhibitor-containing reagent mix (TEM-2 beta lactamase; 64 micrograms/mL in 2× mix, lysate undiluted, 15 min): 5.00
- resistance of the beta lactamase to the substance (TEM-2 beta lactamase; judged from R-Factor): susceptible
- R-Factor (KPC-2 beta lactamase): 8.94
- S/N (Signal to Noise Ratio) in inhibitor-containing reagent mix (KPC-2 beta lactamase; 15 min): 40.00
- R-Factor (KPC-2 beta lactamase; listed as clavulanate): high
- Interpretation ([6]; No. 5, Sample ID B612): susceptible to CA (CA (clavulanate) resistance cutoff R-Factor value: 2.50)
- R-Factor ([6]; No. 5, Sample ID B612): 0.27
- Interpretation ([6]; No. 6, Sample ID B616): susceptible to CA (CA (clavulanate) resistance cutoff R-Factor value: 2.50)
- R-Factor ([6]; No. 6, Sample ID B616): 0.13
